From patent US10844351B2, “Method for producing otic progenitors” (priority 2015, dated 2020) come the findings set out here.

SMILES strings stand for the structures.

Common to all, as to type: cell-based, human
For series [1], the system named is H14S9 hES cell line. Put plainly: QPCR of ectoderm, mesoderm and endoderm lineage marker gene expression after 12 day otic differentiation. Here is the method:
With the H14S9 hES cell line, 12 day otic differentiation experiments were carried out in control DFNB, FGF, or FGF with 10 μM IWR-1-endo supplemented medium. Gene expression of the three germ layer lineages relative to the baseline DFNB condition were quantified by QPCR. Two gene markers for each germ layer were investigated; PAX6 and NEST/N (ectoderm), BRACHYURY and MEOX1 (mesoderm), and AFP and GATA6 (endoderm) (FIG. 2).
Following a lost-of function/gain-of function paradigm, an experiment was done to determine the effect of activating canonical Wnt signalling throughout the 12 days of otic differentiation. The small molecule compound BIO (6-bromoindirubin-3′-oxime, Tocris) is a potent inhibitor of GSK-3β kinase, a component of the β-catenin degradation complex. Inhibition of GSK-3β kinase activity disrupts the proteolytic breakdown of β-catenin and so Wnt activity is sustained (Meijer et al., 2003). BIO is well established in the literature and has been used to investigate survival and proliferation of hES cells and also lineage differentiation studies (Dravid et al., 2005) (Tseng et al., 2006). BIO was tested at a concentration of 2 μM (as recommended in the literature). […] In contrast to inhibiting canonical Wnt signalling throughout the 12 day protocol, activating canonical Wnt signalling throughout appears to downregulate gene expression of the otic and ectoderm markers, with upregulation of markers of mesoderm and endoderm.

Series [2] relates to H14S9 hES cell line. Put plainly: QPCR of otic marker gene expression after 12 day otic differentiation protocol. Here is the method:
The effect of the Wnt inhibitors was initially explored in the backdrop of a known differentiation protocol, which includes FGF 3 and FGF 10 supplementation from the outset. Experiments were carried out to determine the effect of canonical Wnt inhibition on the differentiation of otic progenitors in FGF medium (standard concentration of 50 ng/ml for each FGF 3 and FGF 10) and obtain an optimal working concentration. IWR-1-endo was present from day 0 of differentiation (day 0 refers to the initial seeding of the hES cells into differentiation conditions) and were maintained throughout the 12 day protocol. At the end of the differentiation protocol, RNA was extracted and PAX2, PAX8 and FOXG1 gene expression was quantified by real time PCR (QPCR) using SYBR Green (Sigma Aldrich). Delta Cts were calculated against the large ribosomal protein RPLPO housekeeping gene, and Delta Ct values were compared against the levels expressed by cells differentiated in the control DFNB medium (Livak and Schmittgen, 2001). FIG. 1 compares the dose responses of IWR-1-endo and the effect on the gene expression of PAX2, PAX8 and FOXG1 in the H14S9 hES cell line. Dimethyl sulfoxide (DMSO) was the vehicle for all small molecule compounds. A vehicle-only control was added to FGF medium to ascertain the effects of DMSO. […] This provided confidence that the Wnt inhibitor compound was exerting an effect on gene expression, and not the carrier vehicle. […] The optimal concentration of IWR-1-endo agrees with published findings in human stem cell studies (Chen et al., 2009, Hudson et al., 2012).
Further investigating the timing of canonical Wnt inhibition it was important to address whether inhibition was required throughout the whole 12-day differentiation protocol. Experiments were set up to inhibit canonical Wnt signalling for different lengths of time. In combination with FGF medium, Wnt inhibition took place from day 0 to day 4, day 0 to day 6, or day 0 to day 8. […] At the end of day 12, gene expression of PAX2, PAX8 and FOXG1 was quantified relative to the DFNB baseline condition, and is shown in FIG. 6. […]

In series [3] the test system is H14S9 hES cell line. Put plainly: Cell death in differentiating cultures. The conditions noted are these: 20 μM IWR-1-endo in FGF medium. Here is the method:
The effect of the Wnt inhibitors was initially explored in the backdrop of a known differentiation protocol, which includes FGF 3 and FGF 10 supplementation from the outset. Experiments were carried out to determine the effect of canonical Wnt inhibition on the differentiation of otic progenitors in FGF medium (standard concentration of 50 ng/ml for each FGF 3 and FGF 10) and obtain an optimal working concentration. IWR-1-endo was present from day 0 of differentiation (day 0 refers to the initial seeding of the hES cells into differentiation conditions) and were maintained throughout the 12 day protocol. At the end of the differentiation protocol, RNA was extracted and PAX2, PAX8 and FOXG1 gene expression was quantified by real time PCR (QPCR) using SYBR Green (Sigma Aldrich). Delta Cts were calculated against the large ribosomal protein RPLPO housekeeping gene, and Delta Ct values were compared against the levels expressed by cells differentiated in the control DFNB medium (Livak and Schmittgen, 2001). FIG. 1 compares the dose responses of IWR-1-endo and the effect on the gene expression of PAX2, PAX8 and FOXG1 in the H14S9 hES cell line. Dimethyl sulfoxide (DMSO) was the vehicle for all small molecule compounds. A vehicle-only control was added to FGF medium to ascertain the effects of DMSO. […]

Where [4] appears, read: 2 μM BIO in FGF medium throughout 12 days, one experiment.
The mark [5] stands for this setting: FGF medium with 10 μM IWR-1-endo, 12 days, compared to FGF condition.

With `O=C1Nc2cc(Br)ccc2/C1=C1/Nc2ccccc2/C1=N\O` [BIO, 6-bromoindirubin-3′-oxime], in the series with H14S9 hES cell line [1] (setting [4]), the “gene expression of markers of mesoderm and endoderm” value is “upregulation”; the “gene expression of the otic and ectoderm markers” value is recorded as “downregulate”.
Regarding `O=C(Nc1cccc2cccnc12)c1ccc(N2C(=O)[C@@H]3[C@H](C2=O)[C@@H]2C=C[C@H]3C2)cc1` [IWR-1-endo], the “gene expression of PAX2, PAX8 and FOXG1” value with H14S9 hES cell line [2] (10 μM IWR-1-endo in FGF medium (50 ng/ml FGF 3 and FGF 10), day 0 to day 12, relative to DFNB) was “more robust and reproducible upregulation”. For the same compound, the “gene expression of PAX2, PAX8 or FOXG1” value with H14S9 hES cell line [2] (IWR-1-endo day 0 to day 4 or day 0 to day 6, then FGF medium only until day 12, compared to FGF medium alone) is “did not significantly alter”. For the same compound, the “gene expression of the otic markers” value in the series on H14S9 hES cell line [2] (canonical Wnt inhibition with IWR-1-endo day 0 to 8 or day 0 to 12, compared to standard FGF medium) was “Significant upregulation”. Further, in the series with H14S9 hES cell line [3], the “cell death in the cultures” value is listed as “very high levels of cell death”. In the series on H14S9 hES cell line [1] (setting [5]), the “ectodermal differentiation (PAX6, NESTIN gene expression)” value is “enhanced further over the FGF condition”; the “gene expression of mesoderm and endoderm markers” value is given as “significantly reduced compared to the FGF condition”. Besides, the AFP gene expression result in the series on H14S9 hES cell line [1] (FGF medium with IWR-1-endo, 12 days, compared to FGF condition) is reported as “significant downregulation”.
